# Results published in patent US6596320B1, “Method for treating cancer having greater efficacy and reduced adverse effects” (BioNumerik Pharmaceuticals, Inc., priority 2002, dated 2003).
# What was measured:
# MCF7/WT (breast cancer) [1] = assay: Sequential treatment of MCF7/WT with Taxol followed by CDDP, % cell survival; format: cell-based, human; settings: 2 hour
# Procedure: (§1) In vitro experiments were conducted to determine the efficacy of platinum/taxane combination therapy and to determine if the order of administration of the agents affected the cytotoxicity. The agents used were cisplatin (CDDP) and paclitaxel (Taxol®®), and the cell line used was MCF7/WT (breast cancer). The results of the experiments are shown below in Tables 1 and 2.
# MCF7/WT (breast cancer) [2] = assay: Sequential treatment of MCF7/WT with CDDP followed by Taxol, % cell survival; format: cell-based, human; settings: 2 hour
# Procedure: as §1
# [3] = cited from earlier work
compound,measurement,setting,value
"[NH2][Pt]([NH2])([Cl])[Cl] [CDDP, cisplatin]","% cell survival, Average",MCF7/WT (breast cancer) [1]; CDDP 4.25 uM alone,73%
same,"% cell survival, Average",MCF7/WT (breast cancer) [1]; CDDP 8.5 uM alone,52%
same,"% cell survival, Average",MCF7/WT (breast cancer) [2]; CDDP 4.25 uM alone,71%
same,"% cell survival, Average",MCF7/WT (breast cancer) [2]; CDDP 8.5 uM alone,50%
"O=S(=O)([O-])CCSSCCS(=O)(=O)[O-].[Na+].[Na+] [Dimesna, Disodium 2,2′-dithiobis ethane sulfonate]",interference with cytotoxic effects of co-administered antineoplastic agent(s),[3]; co-administration,not to interfere with the cytotoxic effects
same,effect on unwanted toxic effects of single agent cisplatin and single agent paclitaxel,[3]; human patients,reduce the unwanted toxic effects
"CC(=O)O[C@H]1C(=O)[C@@]2(C)[C@H]([C@H](OC(=O)c3ccccc3)[C@]3(O)C[C@H](OC(=O)[C@H](O)[C@@H](NC(=O)c4ccccc4)c4ccccc4)C(C)=C1C3(C)C)[C@]1(OC(C)=O)CO[C@@H]1C[C@@H]2O [Taxol ®, paclitaxel]","% cell survival, Average",MCF7/WT (breast cancer) [1]; Taxol 27 nM alone,88%
same,"% cell survival, Average",MCF7/WT (breast cancer) [1]; Taxol 45 nM alone,82%
same,"% cell survival, Average",MCF7/WT (breast cancer) [2]; Taxol 27 nM alone,71%
same,"% cell survival, Average",MCF7/WT (breast cancer) [2]; Taxol 45 nM alone,45%
